Organism: Rattus norvegicus
Test: Open TG-GATES - Regimen: Single
Assay type: toxicity, organism-based, Sprague-Dawley
Design: regimen Single, gender Male, age 6 weeks
Details: in vivo, po, 75 mg/kg, route gavage, dose level Low; for APTT / Bas / Eos / Fbg / Hb / Ht / Lym / MCH / MCHC / MCV / Mono / Neu / PT / Plat / RBC / Ret / WBC: tissue Blood; for KIDNEY_L / KIDNEY_R / KIDNEY_TOTAL: tissue Kidney; for LIVER: tissue Liver; for A/G / ALP / ALT / AST / BUN / CRE / Ca / Cl / DBIL / GLC / IP / K / LDH / Na / PL / RALB / TBIL / TC / TG / TP / gamma-GTP: tissue Plasma

Work on `CN(C/C=C/C#CC(C)(C)C)Cc1cccc2ccccc12` [TERBINAFINE] yielded a TERMINAL_BW (3 h) of 225.9 g, an APTT (3 h) of 19.4 s and a Bas (3 h) of 0.8%. For the same compound, the Eos (3 h) was 1%, the Fbg (3 h) was 219 mg/dL and the Hb (3 h) was 13.2 g/dL. It also gave a Ht (3 h) of 39.1%, a Lym (3 h) of 82.2% and an MCH (3 h) of 21.2 pg. The MCHC (3 h) was 33.8%, the MCV (3 h) was 62.7 fL and the Mono (3 h) was 2.2%. It also gave a Neu (3 h) of 14%, a PT (3 h) of 12 s and a Plat (3 h) of 116.2 x10_4/uL. For the same compound, the RBC (3 h) was 625.2 x10_4/ul, the Ret (3 h) was 7.3% and the WBC (3 h) was 88.5 x10_2/uL. It also gave a KIDNEY_L (3 h) of 1 g, a KIDNEY_R (3 h) of 1 g and a KIDNEY_TOTAL (3 h) of 2 g. It also gave an LIVER (3 h) of 10.4 g, an A/G (3 h) of 1.6 and an ALP (3 h) of 998 IU/L. The ALT (3 h) was 38.6 IU/L, the AST (3 h) was 69 IU/L and the BUN (3 h) was 11.8 mg/dL. The CRE (3 h) was 0.4 mg/dL, the Ca (3 h) was 10.7 mg/dL and the Cl (3 h) was 102.6 meq/L. For the same compound, the DBIL (3 h) was 0.088 mg/dL, the GLC (3 h) was 202.8 mg/dL and the IP (3 h) was 9.5 mg/dL. It also gave a K (3 h) of 3.8 meq/L, an LDH (3 h) of 161.4 IU/L and a Na (3 h) of 141.4 meq/L. For the same compound, the PL (3 h) was 143.6 mg/dL, the RALB (3 h) was 3.4 g/dL and the TBIL (3 h) was 0.1 mg/dL. It also gave a TC (3 h) of 79.4 mg/dL, a TG (3 h) of 51.2 mg/dL and a TP (3 h) of 5.5 g/dL. It also gave a gamma-GTP (3 h) of 0.8 IU/L, a TERMINAL_BW (6 h) of 221.9 g and an APTT (6 h) of 19.3 s. The Bas (6 h) was 0.8%, the Eos (6 h) was 1% and the Fbg (6 h) was 224.2 mg/dL. For the same compound, the Hb (6 h) was 13.5 g/dL, the Ht (6 h) was 40% and the Lym (6 h) was 78.8%. It also gave an MCH (6 h) of 21.3 pg, an MCHC (6 h) of 33.7% and an MCV (6 h) of 63.1 fL. The Mono (6 h) was 2.4%, the Neu (6 h) was 17.2% and the PT (6 h) was 12.1 s. It also gave a Plat (6 h) of 113 x10_4/uL, an RBC (6 h) of 634 x10_4/ul and a Ret (6 h) of 6.9%. The WBC (6 h) was 114.1 x10_2/uL, the KIDNEY_L (6 h) was 1 g and the KIDNEY_R (6 h) was 1 g. For the same compound, the KIDNEY_TOTAL (6 h) was 2 g, the LIVER (6 h) was 10.2 g and the A/G (6 h) was 1.6. It also gave an ALP (6 h) of 872.2 IU/L, an ALT (6 h) of 34.6 IU/L and an AST (6 h) of 66 IU/L. The BUN (6 h) was 10.6 mg/dL, the CRE (6 h) was 0.4 mg/dL and the Ca (6 h) was 10.9 mg/dL. For the same compound, the Cl (6 h) was 102.2 meq/L, the DBIL (6 h) was 0.086 mg/dL and the GLC (6 h) was 200 mg/dL. For the same compound, the IP (6 h) was 9.3 mg/dL, the K (6 h) was 4 meq/L and the LDH (6 h) was 147 IU/L. For the same compound, the Na (6 h) was 140.8 meq/L, the PL (6 h) was 143.2 mg/dL and the RALB (6 h) was 3.4 g/dL. For the same compound, the TBIL (6 h) was 0.1 mg/dL, the TC (6 h) was 77.6 mg/dL and the TG (6 h) was 76.6 mg/dL. It also gave a TP (6 h) of 5.5 g/dL, a gamma-GTP (6 h) of 1 IU/L and a TERMINAL_BW (9 h) of 219.9 g. For the same compound, the APTT (9 h) was 18.1 s, the Bas (9 h) was 0.8% and the Eos (9 h) was 1.2%. For the same compound, the Fbg (9 h) was 215.6 mg/dL, the Hb (9 h) was 13.2 g/dL and the Ht (9 h) was 39.5%. For the same compound, the Lym (9 h) was 77.6%, the MCH (9 h) was 21.6 pg and the MCHC (9 h) was 33.6%. For the same compound, the MCV (9 h) was 64.3 fL, the Mono (9 h) was 2% and the Neu (9 h) was 18.4%. It also gave a PT (9 h) of 12.6 s, a Plat (9 h) of 113.5 x10_4/uL and an RBC (9 h) of 614.2 x10_4/ul. It also gave a Ret (9 h) of 6.6%, a WBC (9 h) of 90.4 x10_2/uL and a KIDNEY_L (9 h) of 1 g. The KIDNEY_R (9 h) was 1 g, the KIDNEY_TOTAL (9 h) was 2 g and the LIVER (9 h) was 8.9 g. For the same compound, the A/G (9 h) was 1.6, the ALP (9 h) was 930.2 IU/L and the ALT (9 h) was 33.2 IU/L. It also gave an AST (9 h) of 71.4 IU/L, a BUN (9 h) of 10.6 mg/dL and a CRE (9 h) of 0.3 mg/dL. For the same compound, the Ca (9 h) was 10.3 mg/dL, the Cl (9 h) was 103.8 meq/L and the DBIL (9 h) was 0.062 mg/dL. The GLC (9 h) was 202.6 mg/dL, the IP (9 h) was 9.9 mg/dL and the K (9 h) was 3.8 meq/L. The LDH (9 h) was 195.4 IU/L, the Na (9 h) was 141.4 meq/L and the PL (9 h) was 124 mg/dL. The RALB (9 h) was 3.3 g/dL, the TBIL (9 h) was 0.1 mg/dL and the TC (9 h) was 68.8 mg/dL. The TG (9 h) was 29.8 mg/dL, the TP (9 h) was 5.4 g/dL and the gamma-GTP (9 h) was 1.6 IU/L. For the same compound, the TERMINAL_BW (24 h) was 238.9 g, the APTT (24 h) was 19.4 s and the Bas (24 h) was 0.8%. It also gave an Eos (24 h) of 1%, a Fbg (24 h) of 227.2 mg/dL and a Hb (24 h) of 13.3 g/dL. For the same compound, the Ht (24 h) was 39.7%, the Lym (24 h) was 77.2% and the MCH (24 h) was 21.1 pg. It also gave an MCHC (24 h) of 33.6%, an MCV (24 h) of 62.9 fL and a Mono (24 h) of 3%. The Neu (24 h) was 17.8%, the PT (24 h) was 12 s and the Plat (24 h) was 124.5 x10_4/uL. It also gave an RBC (24 h) of 631.4 x10_4/ul, a Ret (24 h) of 6.6% and a WBC (24 h) of 82.1 x10_2/uL. The KIDNEY_L (24 h) was 1.1 g, the KIDNEY_R (24 h) was 1 g and the KIDNEY_TOTAL (24 h) was 2.1 g. It also gave an LIVER (24 h) of 11.8 g, an A/G (24 h) of 1.5 and an ALP (24 h) of 1096 IU/L. The ALT (24 h) was 42.8 IU/L, the AST (24 h) was 84.8 IU/L and the BUN (24 h) was 15.2 mg/dL. For the same compound, the CRE (24 h) was 0.4 mg/dL, the Ca (24 h) was 10.8 mg/dL and the Cl (24 h) was 104.2 meq/L. It also gave a DBIL (24 h) of 0.1 mg/dL, a GLC (24 h) of 194.2 mg/dL and an IP (24 h) of 7.7 mg/dL. It also gave a K (24 h) of 4.3 meq/L, an LDH (24 h) of 207.8 IU/L and a Na (24 h) of 141 meq/L. For the same compound, the PL (24 h) was 135.6 mg/dL, the RALB (24 h) was 3.4 g/dL and the TBIL (24 h) was 0.2 mg/dL. The TC (24 h) was 68.6 mg/dL, the TG (24 h) was 109.2 mg/dL and the TP (24 h) was 5.6 g/dL. It also gave a gamma-GTP (24 h) of 1.6 IU/L.

From ChEMBL document CHEMBL3885861, “Open TG-GATES”
